Laboratory results published in patent publication US20240336574A1 (LATIGO BIOTHERAPEUTICS, INC., priority 2021, published 2024).
Like-named read-outs stand apart in the source and are kept apart here.

What was measured:
Assay type in all cases: cell-based
[1] = target: T1, human NaV1.8 (Homo sapiens, UniProt Q9Y5Y9); test: Human NaV1.8 cell line SyncroPatch384PE automated patch clamp assay; design: expressed in transfected cells; host or cells: HEK cells, stably transfected; conditions: resting state block (P1 measurement), recombinant human NaV1.8 cells
T1 sequence (Q9Y5Y9 whole entry): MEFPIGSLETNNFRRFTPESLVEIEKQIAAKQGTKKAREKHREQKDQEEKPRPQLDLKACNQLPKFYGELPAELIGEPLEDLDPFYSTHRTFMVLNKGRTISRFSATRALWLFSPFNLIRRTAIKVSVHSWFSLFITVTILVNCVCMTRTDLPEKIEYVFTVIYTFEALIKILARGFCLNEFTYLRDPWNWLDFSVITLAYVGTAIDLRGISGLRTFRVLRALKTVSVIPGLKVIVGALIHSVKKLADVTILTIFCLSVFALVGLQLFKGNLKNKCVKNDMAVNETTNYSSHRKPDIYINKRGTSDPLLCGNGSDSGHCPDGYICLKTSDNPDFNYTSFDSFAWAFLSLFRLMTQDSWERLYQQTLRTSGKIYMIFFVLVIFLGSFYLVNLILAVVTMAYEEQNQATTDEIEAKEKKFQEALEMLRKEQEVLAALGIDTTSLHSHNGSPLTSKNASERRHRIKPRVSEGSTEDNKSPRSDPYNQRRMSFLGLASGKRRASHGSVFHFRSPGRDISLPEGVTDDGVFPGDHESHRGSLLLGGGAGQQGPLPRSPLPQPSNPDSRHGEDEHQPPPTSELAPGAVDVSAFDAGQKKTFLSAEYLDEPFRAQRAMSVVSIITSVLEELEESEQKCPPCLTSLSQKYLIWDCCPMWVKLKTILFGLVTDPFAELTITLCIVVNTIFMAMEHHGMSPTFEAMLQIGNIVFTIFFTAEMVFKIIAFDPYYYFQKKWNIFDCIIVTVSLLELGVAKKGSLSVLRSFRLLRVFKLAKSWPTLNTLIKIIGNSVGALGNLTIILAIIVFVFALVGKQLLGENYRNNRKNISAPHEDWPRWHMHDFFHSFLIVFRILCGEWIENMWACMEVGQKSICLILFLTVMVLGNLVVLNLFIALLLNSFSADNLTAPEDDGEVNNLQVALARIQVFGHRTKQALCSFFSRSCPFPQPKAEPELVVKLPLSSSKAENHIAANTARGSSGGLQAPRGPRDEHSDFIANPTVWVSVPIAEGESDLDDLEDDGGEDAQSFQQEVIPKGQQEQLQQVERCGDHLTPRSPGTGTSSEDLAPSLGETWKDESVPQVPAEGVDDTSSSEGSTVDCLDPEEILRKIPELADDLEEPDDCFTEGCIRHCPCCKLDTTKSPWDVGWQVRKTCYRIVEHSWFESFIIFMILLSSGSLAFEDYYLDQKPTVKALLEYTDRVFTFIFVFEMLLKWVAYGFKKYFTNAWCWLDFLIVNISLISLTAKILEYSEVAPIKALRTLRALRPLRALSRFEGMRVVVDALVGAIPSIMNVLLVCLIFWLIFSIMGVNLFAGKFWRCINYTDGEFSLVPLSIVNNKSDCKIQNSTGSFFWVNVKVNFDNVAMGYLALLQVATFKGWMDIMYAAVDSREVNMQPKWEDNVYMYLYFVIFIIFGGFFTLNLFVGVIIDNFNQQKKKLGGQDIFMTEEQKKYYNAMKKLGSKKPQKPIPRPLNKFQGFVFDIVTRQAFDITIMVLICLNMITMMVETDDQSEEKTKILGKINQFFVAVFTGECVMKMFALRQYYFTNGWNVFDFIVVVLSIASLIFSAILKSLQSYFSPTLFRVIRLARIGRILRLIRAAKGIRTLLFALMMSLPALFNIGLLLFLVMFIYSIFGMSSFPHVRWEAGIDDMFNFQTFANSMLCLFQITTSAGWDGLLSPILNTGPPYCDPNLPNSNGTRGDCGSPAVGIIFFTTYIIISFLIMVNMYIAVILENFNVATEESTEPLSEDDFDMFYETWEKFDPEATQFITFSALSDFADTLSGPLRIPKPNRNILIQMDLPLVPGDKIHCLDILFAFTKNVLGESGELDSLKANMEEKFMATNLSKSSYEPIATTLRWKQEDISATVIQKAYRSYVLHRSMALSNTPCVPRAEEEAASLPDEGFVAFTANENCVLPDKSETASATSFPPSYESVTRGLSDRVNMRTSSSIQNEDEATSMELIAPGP
Description: Compound Profiling on NaV1.8—Human NaV1.8 Cell Line—SyncroPatch384PE Assay
Compounds were tested on recombinant human NaV1.8 stably transfected HELK cells using the SyncroPatch384PE system, an automated patch clamp device. Cells were cultured at 37° C./5% CO2 in DMEM medium supplemented with GlutaMAX I, NEAA 1%, FBS 10% and seeded in T175 flasks. Cells were cultured at 30° C. one day prior to recording sodium currents. On the day of the recordings, cells were detached with 0.05% Trypsin-EDTA, resuspended in serum free DMEM medium and placed into the SyncroPatch384PE 6° C. pre-cooled cell hotel and shaken at 200 rpm. Intracellular solution (IC) contained, in mM: 10, CsCl; 110, CsF; 20, EGTA; 10, HEPES. Extracellular solution (EC) contained, in mM: 140, NaCl; 4, KCl; 5, Glucose; 10, HEPES; 2, CaCl2; 1, MgCl2. Washing solution contained, in mM: 40, NMDG; 100, NaCl; 4, KCl; 10, Glucose; 10, HEPES; 5, CaCl2; 1, MgCl2.
Compounds were tested in quadruplicates in 0.1% DMSO and 0.030% Pluronic Acid. Compounds were diluted 1:3.33 in EC solution to create a 10-point concentration response curve, spanning a final concentration range from 10-0.0002 μM in the assay plate. Compounds with low nM potency were retested using a lower concentration range (1-0.00002 μM). Each plate contained tetracaine and another tool compound as positive controls. Up to 7 compounds were tested on one plate. 150 μM tetracaine and 0.1% DMSO were used as high and low controls, respectively.
Whole cell patch clamp recordings were conducted according to Nanion's standard procedure for SyncroPatch384PE®. Cells were held at a holding potential of −120 mV. A depolarization step to 10 mV for 30 ms was applied (P1 measurement), followed by a hyperpolarization step to −100 mV for 100 ms. An inactivation step at −40 mV for 10 sec was applied before stepping to −100 mV for 20 ms, followed by a step to 10 mV for 30 ms (P2 measurement) and then back to −100 mV for 30 ms. Sweep interval was 15 sec with a sampling rate of 10 kHz. Following establishment of the whole-cell configuration in EC, two washing steps with reference buffer were performed to stabilize the baseline. Compounds were then applied by the SynchroPatch into each well and the current was recorded for five minutes in EC, followed by application of tetracaine to achieve full block at the end of the experiment. The potency of the compounds was assessed on two read-outs, resting state block (P1 measurement) or inactivated state block (P2 measurement) to obtain IC50 values. Values were normalized to high (tetracaine) and low (DMSO) controls.

[2] = target: T1, human NaV1.8; test: Activity of representative NaV1.8 inhibitors, determined using one or more of the methods of Example 122 (method not specified); design: expressed in transfected cells; host or cells: HEK293 / HEK-293, stably expressing; conditions: inhibition of the Nav1.8 channel; one or more of fluorescence, PatchXpress or IonFlux HT methods
Description: The ability of pyridazine carboxamide derivatives exemplified above to inhibit the NaV1.8 channel was determined using one or more of the methods described below.
A HEK293 cell line stably expressing the human NaV1.8 (hNaV1.8) ion channel with β1/β2 subunits was constructed. The cell line is suitable for IC50 determination in fluorescence and electrophysiological based assays. It is also suitable to form mechanism of action pharmacology studies in electrophysiological assays. HEK293 NaV1.8 cells are grown as adherent monolayers in DMEM/high glucose media, 10% fetal bovine serum, Na pyruvate (2 mM), Hepes (10 mM) with selection agents G418 (400 mg/L) and puromycin (0.5 mg/L) at 37 degrees C., 10% CO2.
Activity of Representative NaV1.8 Inhibitors
The ability of representative pyridazine carboxamide derivatives exemplified above to inhibit the Nav1.8 channel was determined using one or more of the methods described immediately hereinabove.

[3] = target: T2, recombinant human NaV1.8 stably transfected HEK cells (Homo sapiens, UniProt Q9Y5Y9); test: Compound profiling on NaV1.8, human NaV1.8 cell line, SyncroPatch384PE automated patch clamp assay (Example 115, third set of compounds, Table 27); conditions: human NaV1.8 HEK cells, Table 27 (third set of compounds)
T2 construct: expressed in transfected cells; host or cells: HEK cells, stably transfected
T2 sequence (Q9Y5Y9 whole entry): as above
Method in brief: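 HEK cells, cultured at 30 °C the day before, recorded by automated whole-cell patch clamp (CsF intracellular, 140 mM Na+ external), holding −120 mV. 10-point curves at 10–0.0002 µM (or 1–0.00002 µM), 5 min exposure; IC50 for resting (P1) and inactivated-state block (P2, after 10 s at −40 mV), normalized to 150 µM tetracaine and 0.1% DMSO.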

[4] = inactivated state block (P2 measurement), read-out: P2 IC50
[5] = resting state block (P1 measurement), read-out: P1 IC50

Compound	IC50 [1]	IC50 [2]	IC50 [3, 4]	IC50 [3, 5]
COc1cc(F)ccc1Oc1nnc(C(F)(F)F)cc1C(=O)N[C@H]1CCCN(C(=O)OC(C)(C)C)C1 [Compound 5, tert-Butyl (S)-3-(3-(4-fluoro-2-methoxyphenoxy)-6-(trifluoromethyl)pyridazine-4-carboxamido)piperidine-1-carboxylate]	> 5 µM	–	–	–
COc1cc(F)ccc1Oc1nnc(C(F)(F)F)cc1C(=O)NC1CCCNC1=O (stereo not drawn) [Compound 9]	> 5 µM	–	–	–
Cc1cc(F)ccc1Oc1nnc(C(F)(F)F)cc1C(=O)Nc1ccc(C)c(S(C)(=O)=O)c1 [Compound 106, 3-(4-Fluoro-2-methylphenoxy)-N-(4-methyl-3-(methylsulfonyl)phenyl)-6-(trifluoromethyl)pyridazine-4-carboxamide]	–	–	201 to 500 nM	201 to 500 nM
Cc1cc(Br)ccc1Oc1nnc(C(F)(F)F)cc1C(=O)Nc1ccc(C(N)=O)cc1 [Compound 83]	–	–	≤ 200 nM	≤ 200 nM
CSc1cccc(NC(=O)c2cc(C(F)(F)F)nnc2Oc2cc(F)ccc2Cl)c1 [Compound 111]	–	–	> 5000 nM	> 5000 nM
Cc1cc(F)ccc1Oc1nnc(C(F)(F)F)cc1C(=O)Nc1cccc(S(C)(=N)=O)c1 (stereo not drawn) [Example 2, 3-(4-fluoro-2-methyl-phenoxy)-N-[3-(methylsulfonimidoyl)phenyl]-6-(trifluoromethyl)pyridazine-4-carboxamide]	–	< 500 nM	–	–
COc1cc(C#N)ccc1Oc1nnc(C(F)(F)F)cc1C(=O)Nc1cccc(S(C)(=O)=O)c1 [Compound 75]	–	–	≤ 200 nM	≤ 200 nM
COc1cc(F)ccc1Oc1nnc(C(F)(F)F)cc1C(=O)N[C@H]1CCCNC1 [Compound 6, (S)-3-(4-Fluoro-2-methoxyphenoxy)-N-(piperidin-3-yl)-6-(trifluoromethyl)pyridazine-4-carboxamide]	> 5 µM	–	–	–
Cc1cc(F)ccc1Oc1nnc(C(F)(F)F)cc1C(=O)Nc1cccc(S(N)(=O)=O)c1 [Compound 51]	–	–	≤ 200 nM	≤ 200 nM
COc1cc(F)ccc1Oc1nnc(C(F)(F)F)cc1C(=O)Nc1cccc(-n2ncnc2C)c1 [Compound 36]	–	–	501 to 1000 nM	201 to 500 nM
CS(=O)(=O)c1ccc(F)c(NC(=O)c2cc(C(F)(F)F)nnc2Oc2cc(F)ccc2Cl)c1 [Compound 74]	–	–	501 to 1000 nM	≤ 200 nM
COc1cc(F)ccc1Oc1nnc(C)cc1C(=O)Nc1cccc(S(C)(=O)=O)c1 [Compound 104]	–	–	> 5000 nM	> 5000 nM
CSc1ccc(NC(=O)c2cc(C(F)(F)F)nnc2Oc2ccc(F)cc2C)cc1 [Compound 32]	–	–	> 5000 nM	> 5000 nM
CS(=O)(=O)c1cccc(NC(=O)c2cc(C(F)(F)F)nnc2Oc2cc(F)ccc2Cl)c1 [Compound 73]	–	–	201 to 500 nM	201 to 500 nM
CCOc1cc(F)ccc1Oc1nnc(C)cc1C(=O)Nc1cccc(S(C)(=N)=O)c1 (stereo not drawn) [Compound 95, 3-(2-Ethoxy-4-fluorophenoxy)-6-methyl-N-(3-(S-methylsulfonimidoyl)phenyl)pyridazine-4-carboxamide]	–	–	> 5000 nM	> 5000 nM
Cc1cc(F)ccc1Oc1nnc(C(F)(F)F)cc1C(=O)Nc1cccc([S@@](C)(=N)=O)c1 [Compound 103, (S)-3-(4-fluoro-2-methylphenoxy)-N-(3-(S-methylsulfonimidoyl)phenyl)-6-(trifluoromethyl)pyridazine-4-carboxamide]	–	–	201 to 500 nM	> 5000 nM
COc1cc(F)ccc1Oc1nnc(C(F)(F)F)cc1C(=O)Nc1ccnc(S(N)(=O)=O)c1 [Compound 50]	–	–	≤ 200 nM	≤ 200 nM

Next, values leading:

IC50 [1]	IC50 [2]	IC50 [3, 4]	IC50 [3, 5]	Compound
> 5 µM	–	–	–	COc1cc(F)ccc1Oc1nnc(C(F)(F)F)cc1C(=O)N[C@H]1CCCN(C(C)=O)C1 [Compound 8]
–	< 500 nM	–	–	COc1cc(F)ccc1Oc1nnc(C(F)(F)F)cc1C(=O)Nc1cccc(S(C)(=N)=O)c1 (stereo not drawn) [Example 1, 3-(4-fluoro-2-methoxy-phenoxy)-N-[3-(methylsulfonimidoyl)phenyl]-6-(trifluoromethyl)pyridazine-4-carboxamide]
> 5 µM	–	501 to 1000 nM	1000 to 5000 nM	COc1cc(F)ccc1Oc1nnc(C(F)(F)F)cc1C(=O)N[C@H]1CCCN(S(C)(=O)=O)C1 [Compound 7, (S)-3-(4-Fluoro-2-methoxyphenoxy)-N-(1-(methylsulfonyl)piperidin-3-yl)-6-(trifluoromethyl)pyridazine-4-carboxamide]
> 5 µM	–	–	–	CC(=O)N1CCC[C@@H](NC(=O)c2cc(C(F)(F)F)nnc2Oc2ccc(F)cc2C)C1 [Compound 4]
> 5 µM	–	–	–	Cc1cc(F)ccc1Oc1nnc(C(F)(F)F)cc1C(=O)NC1CCCNC1=O (stereo not drawn) [Compound 10]
–	–	501 to 1000 nM	501 to 1000 nM	COc1ccc(F)cc1Oc1nnc(C(F)(F)F)cc1C(=O)Nc1cccc(C(N)=O)c1 [Compound 80]
–	–	1000 to 5000 nM	1000 to 5000 nM	Cc1cc(F)ccc1Oc1nnc(C(F)(F)F)cc1C(=O)Nc1ccn2cnnc2c1 [Compound 11]
> 5 µM	–	–	–	COc1cc(F)ccc1Oc1nnc(C(F)(F)F)cc1C(=O)NC1CCC(=O)NC1 (stereo not drawn) [Compound 12]
–	< 500 nM	–	–	CS(=O)(=O)c1cccc(NC(=O)c2cc(Cl)nnc2Oc2ccc(OC(F)(F)F)cc2)c1 [Example 3, 6-chloro-N-(3-methylsulfonylphenyl)-3-[4-(trifluoromethoxy)phenoxy]pyridazine-4-carboxamide]
–	–	≤ 200 nM	≤ 200 nM	Cc1cc(OC(F)(F)F)ccc1Oc1nnc(C(F)(F)F)cc1C(=O)Nc1cccc(S(C)(=O)=O)c1 [Compound 35]
–	–	201 to 500 nM	≤ 200 nM	COc1cc(F)ccc1Oc1nnc(C(F)(F)F)cc1C(=O)Nc1ccc(C(N)=O)nc1 [Compound 125, N-(6-Carbamoylpyridin-3-yl)-3-(4-fluoro-2-methoxyphenoxy)-6-(trifluoromethyl)pyridazine-4-carboxamide]
–	–	1000 to 5000 nM	1000 to 5000 nM	O=C(Nc1cc[nH]c(=O)c1)c1cc(C(F)(F)F)nnc1Oc1ccc(F)cc1Cl [Compound 89, 3-(2-Chloro-4-fluorophenoxy)-N-(2-oxo-1,2-dihydropyridin-4-yl)-6-(trifluoromethyl)pyridazine-4-carboxamide]
–	–	> 5000 nM	> 5000 nM	O=C(Nc1ccc[n+]([O-])c1)c1cc(C(F)(F)F)nnc1Oc1ccc(F)cc1Cl [Compound 62]
> 5 µM	–	–	–	Cc1cc(F)ccc1Oc1nnc(C(F)(F)F)cc1C(=O)NC1CCC(=O)NC1 (stereo not drawn) [Compound 11]
–	–	> 5000 nM	> 5000 nM	COc1cc(F)ccc1Oc1nnc(C(F)(F)F)cc1C(=O)Nc1cc(C#N)cnn1 [Compound 56]
